These compounds were tested on HIV-IIIb (MT-4 cells) (assay: Test A: Antiviral Assays in MT4 Cells). Conditions: Human immunodeficiency virus 1, IIIB, MT4, 120 h.
Assay type: cell-based
Procedure: Test A: Antiviral Assays in MT4 Cells
For the antiviral assay utilizing MT-4 cells, 0.4 μL of […] test concentration of 3-fold serially diluted compound in DMSO was added to 40 μL of cell growth medium (RPMI 1640, 10% FBS, 1% penicilline/Streptomycine, 1% L-Glutamine, 1% HEPES) in each well of 384-well assay plates (10 concentrations) in quadruplicate.
1 mL aliquots of 2×10e6 MT-4 cells are pre-infected for 1 and 3 hrs respectively, @37° C. with 25 uL (MT4) or of either cell growth medium (mock-infected) or a fresh 1:250 dilution of an HIV-IIIb concentrated ABI stock (0.004 m.o.i. for MT4 cells). Infected and uninfected cells are diluted in cell growth medium and 35 uL of 2000 (for MT4) cells is added to each well of the assay plates.
Assay plates were then incubated in a 37° C. incubator. After 5 days of incubation, 25 μl of 2× concentrated CellTiter-Glo™ Reagent (catalog # G7573, Promega Biosciences, Inc., Madison, Wis.) was added to each well of the assay plate. Cell lysis was carried out by incubating at room temperature for 2-3 min and then chemiluminescence was read using the Envision reader (PerkinElmer). […]
Compound `Cc1cc2nc(N(C)C)sc2c(-c2ccc3c4c(ccnc24)CCO3)c1[C@H](OC(C)(C)C)C(=O)O` (atropisomer, axis not shown) [Compound 43, (S)-2-tert-butoxy-2-((R)-7-(2,3-dihydropyrano[4,3,2-de]quinolin-7-yl)-2-(dimethylamino)-5-methylbenzo[d]thiazol-6-yl)acetic acid] has an EC50 of 5090 nM.

Same assay, conditions: Human immunodeficiency virus 1, IIIB, MT4, 120 h, MT-4 cells infected with HIV-IIIb (0.004 m.o.i.), 5 days incubation, CellTiter-Glo readout; read-out: EC50
Work on `Cc1cc2c(sc(=O)n2Cc2ccccc2)c(-c2ccc3c4c(ccnc24)CCO3)c1[C@H](OC(C)(C)C)C(=O)O` (atropisomer, axis not shown) [Compound 72, (S)-2-((S)-3-benzyl-7-(2,3-dihydropyrano[4,3,2-de]quinolin-7-yl)-5-methyl-2-oxo-2,3-dihydrobenzo[d]thiazol-6-yl)-2-tert-butoxyacetic acid] yielded an EC50 of 29.8 nM. `CCN(CC)c1nc2cc(C)c([C@H](OC(C)(C)C)C(=O)O)c(-c3ccc4c5c(ccnc35)CCO4)c2s1` (atropisomer, axis not shown) [Compound 45, (S)-2-tert-butoxy-2-((S)-2-(diethylamino)-7-(2,3-dihydropyrano[4,3,2-de]quinolin-7-yl)-5-methylbenzo[d]thiazol-6-yl)acetic acid] showed an EC50 of 67 nM. Compound `Cc1cc2ncsc2c(-c2ccc3c4c(ccnc24)CCO3)c1[C@H](OC(C)(C)C)C(=O)O` (atropisomer, axis not shown) [Compound 95, (S)-2-tert-butoxy-2-((S)-7-(2,3-dihydropyrano[4,3,2-de]quinolin-7-yl)-5-methylbenzo[d]thiazol-6-yl)acetic acid] has an EC50 of 655 nM. `COc1nc2cc(C)c([C@H](OC(C)(C)C)C(=O)O)c(-c3ccc4c5c(ccnc35)CCO4)c2s1` (atropisomer, axis not shown) [Compound 66, (S)-2-tert-butoxy-2-((S)-7-(2,3-dihydropyrano[4,3,2-de]quinolin-7-yl)-2-methoxy-5-methylbenzo[d]thiazol-6-yl)acetic acid] showed an EC50 of 22.5 nM. Work on `CCN(C)c1nc2cc(C)c([C@H](OC(C)(C)C)C(=O)O)c(-c3ccc4c5c(ccnc35)CCO4)c2s1` (atropisomer, axis not shown) [Compound 44, (S)-2-tert-butoxy-2-((S)-7-(2,3-dihydropyrano[4,3,2-de]quinolin-7-yl)-2-(ethyl(methyl)amino)-5-methylbenzo[d]thiazol-6-yl)acetic acid] yielded an EC50 of 18.7 nM. For `Cc1cc2c(sc(=O)n2Cc2ccc(C(F)(F)F)cc2)c(-c2ccc3c4c(ccnc24)CCO3)c1[C@H](OC(C)(C)C)C(=O)O` (atropisomer, axis not shown) [Compound 74, (S)-2-tert-butoxy-2-((S)-7-(2,3-dihydropyrano[4,3,2-de]quinolin-7-yl)-5-methyl-2-oxo-3-(4-(trifluoromethyl)benzyl)-2,3-dihydrobenzo[d]thiazol-6-yl)acetic acid], the EC50 was 650 nM. `CCc1nc2cc(C)c([C@H](OC(C)(C)C)C(=O)O)c(-c3ccc(Cl)cc3)c2s1` [Compound 9] showed an EC50 of 118 nM. Work on `Cc1cc2nc(N(C)CC(=O)N(C)C)sc2c(-c2ccc3c4c(ccnc24)CCO3)c1[C@H](OC(C)(C)C)C(=O)O` (atropisomer, axis not shown) [Compound 64, (S)-2-tert-butoxy-2-((R)-7-(2,3-dihydropyrano[4,3,2-de]quinolin-7-yl)-2-((2-(dimethylamino)-2-oxoethyl)(methyl)amino)-5-methylbenzo[d]thiazol-6-yl)acetic acid] yielded an EC50 of 53000 nM. In the case of `Cc1cc2nc(C#CC3CC3)sc2c(-c2ccc(Cl)cc2)c1[C@H](OC(C)(C)C)C(=O)O` [Compound 14], the EC50 is reported as 718 nM. `Cc1cc2nc(N(C)C)sc2c(-c2ccc(Cl)cc2)c1[C@H](OC(C)(C)C)C(=O)O` [Compound 12] was tested, and the EC50 was 113 nM. In the case of `Cc1cc2nc(C3CC3)sc2c(-c2ccc3c4c(ccnc24)CCO3)c1[C@H](OC(C)(C)C)C(=O)O` [Compound 22, (S)-2-tert-butoxy-2-((R)-2-cyclopropyl-7-(2,3-dihydropyrano[4,3,2-de]quinolin-7-yl)-5-methylbenzo[d]thiazol-6-yl)acetic acid], the EC50 is reported as 170 nM. For `Cc1cc2nc(N(C)C)sc2c(-c2ccc3c4c(ccnc24)CCO3)c1[C@H](OC(C)(C)C)C(=O)O` [Compound 42, (S)-2-tert-butoxy-2-((S)-7-(2,3-dihydropyrano[4,3,2-de]quinolin-7-yl)-2-(dimethylamino)-5-methylbenzo[d]thiazol-6-yl)acetic acid], the EC50 was 10.3 nM. `COc1ccc(CNC(=O)c2nc3cc(C)c([C@H](OC(C)(C)C)C(=O)O)c(-c4ccc5c6c(ccnc46)CCO5)c3s2)cc1` (atropisomer, axis not shown) [Compound 99, (S)-2-tert-butoxy-2-((S)-7-(2,3-dihydropyrano[4,3,2-de]quinolin-7-yl)-2-(4-methoxybenzylcarbamoyl)-5-methylbenzo[d]thiazol-6-yl)acetic acid] was tested, and the EC50 was 560 nM. `Cc1nc2cc(C)c([C@H](OC(C)(C)C)C(=O)O)c(-c3ccc(Cl)cc3)c2s1` [Compound 7, (S)-2-tert-butoxy-2-(7-(4-chlorophenyl)-2,5-dimethylbenzo[d]thiazol-6-yl)acetic acid] was tested, and the EC50 was 257 nM. In the case of `Cc1cc2ncsc2c(-c2ccc(Cl)cc2)c1[C@H](OC(C)(C)C)C(=O)O` [Compound 5L, (S)-2-tert-butoxy-2-(7-(4-chlorophenyl)-5-methylbenzo[d]thiazol-6-yl)acetic acid], the EC50 is reported as 2950 nM.

Same assay, conditions: MT-4 cells infected with HIV-IIIb (0.004 m.o.i.), 5 days incubation, CellTiter-Glo readout; read-out: EC50
For `Cc1cc2nc(N(C)CCN(C)C)sc2c(-c2ccc3c4c(ccnc24)CCO3)c1[C@H](OC(C)(C)C)C(=O)O` (atropisomer, axis not shown) [Compound 61, (S)-2-tert-butoxy-2-((S)-7-(2,3-dihydropyrano[4,3,2-de]quinolin-7-yl)-2-((2-(dimethylamino)ethyl)(methyl)amino)-5-methylbenzo[d]thiazol-6-yl)acetic acid], the EC50 was 987 nM. For `Cc1cc2nc(C3=CCCC3)sc2c(-c2ccc3c4c(ccnc24)CCO3)c1[C@H](OC(C)(C)C)C(=O)O` (atropisomer, axis not shown) [Compound 78, (S)-2-tert-butoxy-2-((S)-2-cyclopentenyl-7-(2,3-dihydropyrano[4,3,2-de]quinolin-7-yl)-5-methylbenzo[d]thiazol-6-yl)acetic acid], the EC50 was 726 nM. In the case of `Cc1cc2nc(N(C)CCN(C)C)sc2c(-c2ccc3c4c(ccnc24)CCO3)c1[C@H](OC(C)(C)C)C(=O)O` (atropisomer, axis not shown) [Compound 62, (S)-2-tert-butoxy-2-((R)-7-(2,3-dihydropyrano[4,3,2-de]quinolin-7-yl)-2-((2-(dimethylamino)ethyl)(methyl)amino)-5-methylbenzo[d]thiazol-6-yl)acetic acid], the EC50 is reported as 4880 nM. Compound `Cc1cc2nc(N3CCC3)sc2c(-c2ccc3c4c(ccnc24)CCO3)c1[C@H](OC(C)(C)C)C(=O)O` [Compound 35, (S)-2-((S)-2-(azetidin-1-yl)-7-(2,3-dihydropyrano[4,3,2-de]quinolin-7-yl)-5-methylbenzo[d]thiazol-6-yl)-2-tert-butoxyacetic acid] has an EC50 of 12.7 nM. With `Cc1cc2nc(CC(C)C)sc2c(-c2ccc3c4c(ccnc24)CCO3)c1[C@H](OC(C)(C)C)C(=O)O` (atropisomer, axis not shown) [Compound 83, (S)-2-tert-butoxy-2-((S)-7-(2,3-dihydropyrano[4,3,2-de]quinolin-7-yl)-2-isobutyl-5-methylbenzo[d]thiazol-6-yl)acetic acid] the EC50 was 93.2 nM. For `Cc1cc2nc(N(C)CC3OCCO3)sc2c(-c2ccc3c4c(ccnc24)CCO3)c1[C@H](OC(C)(C)C)C(=O)O` (atropisomer, axis not shown) [Compound 59, (S)-2-((S)-2-(((1,3-dioxolan-2-yl)methyl)(methyl)amino)-7-(2,3-dihydropyrano[4,3,2-de]quinolin-7-yl)-5-methylbenzo[d]thiazol-6-yl)-2-tert-butoxyacetic acid], the EC50 was 149 nM. In the case of `Cc1cc2nc(N(C)CC(C)C)sc2c(-c2ccc3c4c(ccnc24)CCO3)c1[C@H](OC(C)(C)C)C(=O)O` (atropisomer, axis not shown) [Compound 49, (S)-2-tert-butoxy-2-((R)-7-(2,3-dihydropyrano[4,3,2-de]quinolin-7-yl)-2-(isobutyl(methyl)amino)-5-methylbenzo[d]thiazol-6-yl)acetic acid], the EC50 is reported as 13300 nM. `Cc1cc2nc(C3CC3)sc2c(-c2ccc3c4c(ccnc24)CCO3)c1[C@H](OC(C)(C)C)C(=O)O` [Compound 21, (S)-2-tert-butoxy-2-((S)-2-cyclopropyl-7-(2,3-dihydropyrano[4,3,2-de]quinolin-7-yl)-5-methylbenzo[d]thiazol-6-yl)acetic acid] was tested, and the EC50 was 14.9 nM. With `Cc1cc2nc(C3CC3)sc2c(-c2ccc3c(c2Cl)NCCO3)c1[C@H](OC(C)(C)C)C(=O)O` (atropisomer, axis not shown) [Compound 87, (S)-2-tert-butoxy-2-((R)-7-(5-chloro-3,4-dihydro-2H-benzo[b] [1,4]oxazin-6-yl)-2-cyclopropyl-5-methylbenzo[d]thiazol-6-yl)acetic acid] the EC50 was 1570 nM. In the case of `Cc1cc2nc(CC(C)C)sc2c(-c2ccc3c4c(ccnc24)CCO3)c1[C@H](OC(C)(C)C)C(=O)O` (atropisomer, axis not shown) [Compound 84, (S)-2-tert-butoxy-2-((R)-7-(2,3-dihydropyrano[4,3,2-de]quinolin-7-yl)-2-isobutyl-5-methylbenzo[d]thiazol-6-yl)acetic acid], the EC50 is reported as 14900 nM.

— patent publication US9879023B2, “Therapeutic compounds” (Gilead Sciences, Inc., priority 2011, dated 2018)
